In patent publication US10988459B2 (priority 2015, dated 2021) one finds Ki data, which are given here for 27 compounds.

pKi: −log10 of the molar value.

Chain of human RIP1 kinase domain (2-375) (Q13546 2-375): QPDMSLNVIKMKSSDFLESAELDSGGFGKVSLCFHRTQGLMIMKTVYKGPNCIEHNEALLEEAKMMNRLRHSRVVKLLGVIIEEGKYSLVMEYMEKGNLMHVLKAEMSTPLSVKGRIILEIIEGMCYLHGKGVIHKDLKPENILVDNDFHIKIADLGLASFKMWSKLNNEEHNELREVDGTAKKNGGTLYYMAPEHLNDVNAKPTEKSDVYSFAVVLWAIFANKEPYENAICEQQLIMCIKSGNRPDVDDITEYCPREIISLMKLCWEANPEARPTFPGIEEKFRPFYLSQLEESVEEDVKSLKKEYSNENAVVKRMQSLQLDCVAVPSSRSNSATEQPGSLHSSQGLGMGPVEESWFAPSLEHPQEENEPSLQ

The target in this assay is human RIP1 kinase domain (2-375) (Homo sapiens (Human), UniProt Q13546). In words: biochemical. Type of assay: biochemical. The note with it: human RIP1 kinase domain (2-375), Transcreener ADP assay, 50 uM ATP, 2 hours incubation; read-out: RIP1 Ki. Summed up:
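Ki^app comes from Morrison tight-binding fits of fractional activity versus compound concentration. Activity was read as ADP production, via tracer displacement lowering fluorescence polarization (633 nm laser). Conditions: 2 h, 50 nM insect-cell-expressed enzyme, 50 uM ATP, 30 mM MgCl2, 1 mM DTT, 0.5% DMSO, pH 7.5 Hepes.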
`Cc1nn2c(c1C)N(C)C(=O)[C@@H](NC(=O)c1ncn(Cc3ccc(F)cc3F)n1)CC2` [Example 280, (S)-1-(2,4-difluorobenzyl)-N-(2,3,4-trimethyl-5-oxo-5,6,7,8-tetrahydro-4H-pyrazolo[1,5-a][1,3]diazepin-6-yl)-1H-1,2,4-triazole-3-carboxamide]: the negative-log Ki (pKi) is 7.29.

Consider `Cc1nn2c(c1C)N(C)C(=O)[C@@H](NC(=O)c1ncn(Cc3ccc(F)cc3)n1)CC2` [Example 281, (S)-1-(4-fluorobenzyl)-N-(2,3,4-trimethyl-5-oxo-5,6,7,8-tetrahydro-4H-pyrazolo[1,5-a][1, 3]diazepin-6-yl)-1H-1,2,4-triazole-3-carboxamide], for which the negative-log Ki (pKi) is 7.41.

Turning to `CN1C(=O)[C@@H](NC(=O)c2nnc(Cc3ccccc3)o2)CCn2nc(C3CC3)cc21` [Example 282, (S)-5-benzyl-N-(2-cyclopropyl-4-methyl-5-oxo-5,6,7,8-tetrahydro-4H-pyrazolo[1,5-a][1,3]diazepin-6-yl)-1,3,4-oxadiazole-2-carboxamide], the pKi was 7.23.

`CN1C(=O)[C@@H](NC(=O)c2ncn(Cc3ccccc3)n2)CCn2nc(C3CC3(F)F)cc21` (stereo partly drawn) [Example 283, 1-benzyl-N-((6S)-2-(2,2-difluorocyclopropyl)-4-methyl-5-oxo-5,6,7,8-tetrahydro-4H-pyrazolo[1,5-a][1,3]diazepin-6-yl)-1H-1,2,4-triazole-3-carboxamide]: the pKi was 7.14.

Take `CN1C(=O)[C@H](NC(=O)c2ncn(Cc3ccccc3)n2)CCn2nc(C3CC3(F)F)cc21` (stereo partly drawn) [Example 284, 1-benzyl-N-((6R)-2-(2,2-difluorocyclopropyl)-4-methyl-5-oxo-5,6,7,8-tetrahydro-4H-pyrazolo[1,5-a][1,3]diazepin-6-yl)-1H-1,2,4-triazole-3-carboxamide]: the negative logarithm of the Ki (pKi) is 7.06.

With `CN1C(=O)[C@@H](NC(=O)c2nnc(Cc3ccccc3)[nH]2)CCn2nc(C3CC3(F)F)cc21` (stereo partly drawn) [Example 285, 5-benzyl-N-((6S)-2-(2,2-difluorocyclopropyl)-4-methyl-5-oxo-5,6,7,8-tetrahydro-4H-pyrazolo[1,5-a][1,3]diazepin-6-yl)-4H-1,2,4-triazole-3-carboxamide], the negative logarithm of the Ki (pKi) is 6.66.

For `CN1C(=O)[C@H](NC(=O)c2nnc(Cc3ccccc3)[nH]2)CCn2nc(C3CC3(F)F)cc21` (stereo partly drawn) [Example 286, 5-benzyl-N-((6R)-2-(2,2-difluorocyclopropyl)-4-methyl-5-oxo-5,6,7,8-tetrahydro-4H-pyrazolo[1,5-a][1,3]diazepin-6-yl)-4H-1,2,4-triazole-3-carboxamide], the pKi was 7.03.

For the compound `Cc1cc2n(n1)CC[C@H](NC(=O)c1cc3c(cn1)COC3(C)C1CC1)C(=O)N2C` (stereo partly drawn) [Example 287, 1-cyclopropyl-N—((S)-2,4-dimethyl-5-oxo-5,6,7,8-tetrahydro-4H-pyrazolo[1,5-a][1,3]diazepin-6-yl)-1-methyl-1,3-dihydrofuro[3,4-c]pyridine-6-carboxamide], the negative-log Ki (pKi) is 5.85.

Regarding `CN1C(=O)C(NC(=O)c2ncn(Cc3ccc(Cl)cc3)n2)CCn2nc(C3CC3)cc21` (stereo not drawn) [Example 288, 1-(4-chlorobenzyl)-N-(2-cyclopropyl-4-methyl-5-oxo-5,6,7,8-tetrahydro-4H-pyrazolo[1,5-a][1,3]diazepin-6-yl)-1H-1,2,4-triazole-3-carboxamide], the pKi was 7.21.

`Cc1cc2n(n1)CC[C@H](NC(=O)c1ncn(CC3(C)CC3)n1)C(=O)N2C` [Example 289, (S)—N-(2,4-dimethyl-5-oxo-5,6,7,8-tetrahydro-4H-pyrazolo[1,5-a][1,3]diazepin-6-yl)-1-((1-methylcyclopropyl)methyl)-1H-1,2,4-triazole-3-carboxamide]: the pKi is 6.40.

For `CN1C(=O)C(NC(=O)c2n[nH]c(Cc3ccccc3)n2)CCn2cncc21` (stereo not drawn) [Example 293, 5-benzyl-N-(1-methyl-2-oxo-2,3,4,5-tetrahydro-1H-imidazo[1,5-a][1,3]diazepin-3-yl)-1H-1,2,4-triazole-3-carboxamide], the pKi is 7.14.

Consider `CC[C@@]1(C)OCc2cnc(C(=O)NC3CCn4cncc4N(C)C3=O)cc21` (stereo partly drawn) [Example 294, (1R)-1-ethyl-1-methyl-N-(1-methyl-2-oxo-2,3,4,5-tetrahydro-1H-imidazo[1,5-a][1,3]diazepin-3-yl)-1,3-dihydrofuro[3,4-c]pyridine-6-carboxamide], for which the pKi is 6.25.

For the compound `CN1C(=O)C(NC(=O)c2cn(Cc3ccccc3)nn2)CCn2cncc21` (stereo not drawn) [Example 295, 1-benzyl-N-(1-methyl-2-oxo-2,3,4,5-tetrahydro-1H-imidazo[1,5-a][1,3]diazepin-3-yl)-1H-1,2,3-triazole-4-carboxamide], the negative-log Ki (pKi) was 6.93.

As for `CC(c1cnc2[nH]nc(C(=O)N[C@H]3COc4ccccc4N(C)C3=O)c2c1)C(F)(F)F` (stereo partly drawn) [Example 296, N—((S)-5-methyl-4-oxo-2,3,4,5-tetrahydrobenzo[b][1,4]oxazepin-3-yl)-5-(1,1,1-trifluoropropan-2-yl)-1H-pyrazolo[3,4-b]pyridine-3-carboxamide], the negative logarithm of the Ki (pKi) is 7.21.

As to `CN1C(=O)[C@@H](NC(=O)c2ncn(Cc3ccccc3)n2)CCn2cncc21` [Example 297, (S)-1-benzyl-N-(1-methyl-2-oxo-2,3,4,5-tetrahydro-1H-imidazo[1,5-a][1,3]diazepin-3-yl)-1H-1,2,4-triazole-3-carboxamide], the negative logarithm of the Ki (pKi) is 7.68.

Turning to `CN1C(=O)[C@H](NC(=O)c2ncn(Cc3ccc(F)cc3F)n2)CCn2nc(C3CC3)cc21` [Example 298, (R)—N-(2-cyclopropyl-4-methyl-5-oxo-5,6,7,8-tetrahydro-4H-pyrazolo[1,5-a][1,3]diazepin-6-yl)-1-(2,4-difluorobenzyl)-1H-1,2,4-triazole-3-carboxamide], the pKi is 5.59.

For `CN1C(=O)[C@@H](NC(=O)c2cc3c(cn2)COC32CCOCC2)COc2ccccc21` [Example 299, (S)—N-(5-methyl-4-oxo-2,3,4,5-tetrahydrobenzo[b][1,4]oxazepin-3-yl)-2′,3′,5′,6′-tetrahydro-3H-spiro[furo[3,4-c]pyridine-1,4′-pyran]-6-carboxamide], the pKi was 7.13.

With `Cc1nn2c(c1C)N(C)C(=O)[C@@H](NC(=O)c1nnc(Cc3ccccc3)[nH]1)CC2` [Example 300, (S)-5-benzyl-N-(2,3,4-trimethyl-5-oxo-5,6,7,8-tetrahydro-4H-pyrazolo[1,5-a][1,3]diazepin-6-yl)-4H-1,2,4-triazole-3-carboxamide], the pKi is 7.30.

As for `Cc1cc2n(n1)CC[C@H](NC(=O)c1ncn(Cc3c(F)cccc3F)n1)C(=O)N2C` [Example 301, (S)-1-(2,6-difluorobenzyl)-N-(2,4-dimethyl-5-oxo-5,6,7,8-tetrahydro-4H-pyrazolo[1,5-a][1,3]diazepin-6-yl)-1H-1,2,4-triazole-3-carboxamide], the pKi was 7.98.

With `CN1C(=O)[C@@H](NC(=O)c2ncn(Cc3c(F)cccc3F)n2)CCn2nc(C3CC3)cc21` [Example 302, (S)—N-(2-cyclopropyl-4-methyl-5-oxo-5,6,7,8-tetrahydro-4H-pyrazolo[1,5-a][1,3]diazepin-6-yl)-1-(2,6-difluorobenzyl)-1H-1,2,4-triazole-3-carboxamide], the negative-log Ki (pKi) was 7.57.

As to `CN1C(=O)[C@@H](NC(=O)c2ncn(Cc3cc(F)cc(F)c3)n2)CCn2nc(C3CC3)cc21` [Example 303, (S)—N-(2-cyclopropyl-4-methyl-5-oxo-5,6,7,8-tetrahydro-4H-pyrazolo[1,5-a][1,3]diazepin-6-yl)-1-(3,5-difluorobenzyl)-1H-1,2,4-triazole-3-carboxamide], the negative logarithm of the Ki (pKi) is 7.73.

`CN1C(=O)[C@@H](NC(=O)c2ncn(Cc3cc(F)ccc3F)n2)CCn2nc(C3CC3)cc21` [Example 304, (S)—N-(2-cyclopropyl-4-methyl-5-oxo-5,6,7,8-tetrahydro-4H-pyrazolo[1,5-a][1,3]diazepin-6-yl)-1-(2,5-difluorobenzyl)-1H-1,2,4-triazole-3-carboxamide]: the pKi is 7.99.

On to `Cc1cc2n(n1)CC[C@H](NC(=O)c1ncn(Cc3cc(F)ccc3F)n1)C(=O)N2C` [Example 305, (S)-1-(2,5-difluorobenzyl)-N-(2,4-dimethyl-5-oxo-5,6,7,8-tetrahydro-4H-pyrazolo[1,5-a][1,3]diazepin-6-yl)-1H-1,2,4-triazole-3-carboxamide], for which the pKi was 7.82.

On to `CN1C(=O)[C@@H](NC(=O)c2ncn(Cc3cccc(Cl)c3Cl)n2)CCn2nc(C3CC3)cc21` [Example 306, (S)—N-(2-cyclopropyl-4-methyl-5-oxo-5,6,7,8-tetrahydro-4H-pyrazolo[1,5-a][1,3]diazepin-6-yl)-1-(2,3-dichlorobenzyl)-1H-1,2,4-triazole-3-carboxamide], for which the pKi is 7.84.

On to `CN1C(=O)[C@@H](NC(=O)c2ncn(Cc3ccc(Cl)cc3Cl)n2)CCn2nc(C3CC3)cc21` [Example 307, (S)—N-(2-cyclopropyl-4-methyl-5-oxo-5,6,7,8-tetrahydro-4H-pyrazolo[1,5-a][1,3]diazepin-6-yl)-1-(2,4-dichlorobenzyl)-1H-1,2,4-triazole-3-carboxamide], for which the negative logarithm of the Ki (pKi) was 8.07.

With `CN1C(=O)[C@@H](NC(=O)c2ncn(CC3(C)CC3)n2)CCn2nc(C3CC3)cc21` [Example 308, (S)—N-(2-cyclopropyl-4-methyl-5-oxo-5,6,7,8-tetrahydro-4H-pyrazolo[1,5-a][1,3]diazepin-6-yl)-1-((1-methylcyclopropyl)methyl)-1H-1,2,4-triazole-3-carboxamide], the pKi was 6.77.

As to `CCCC1(C)OCc2cnc(C(=O)N[C@H]3COc4ccccc4N(C)C3=O)nc21` (stereo partly drawn) [Example 309, 7-methyl-N—((S)-5-methyl-4-oxo-2,3,4,5-tetrahydrobenzo[b][1,4]oxazepin-3-yl)-7-propyl-5,7-dihydrofuro[3,4-d]pyrimidine-2-carboxamide], the negative-log Ki (pKi) was 7.28.
